According to patent US5523315A, “N-(hydroxyethyl)butanediamide derivatives” (Bio-Mega/Boehringer Ingelheim Research Inc., priority 1993, dated 1996):

target: T1, human renin (Homo sapiens, UniProt P00797); assay: plasma renin assay (inhibition of human renin; angiotensin I generated, measured by radioimmunoassay); assay type: biochemical; conditions: human plasma pool, pH 6.0, 2 h incubation at 37°
T1 construct: A human plasma pool is used as the source of both the substrate (angiotensinogen) and the enzyme (renin); from tissue; host or cells: pooled human plasma
T1 sequence (P00797 67-406): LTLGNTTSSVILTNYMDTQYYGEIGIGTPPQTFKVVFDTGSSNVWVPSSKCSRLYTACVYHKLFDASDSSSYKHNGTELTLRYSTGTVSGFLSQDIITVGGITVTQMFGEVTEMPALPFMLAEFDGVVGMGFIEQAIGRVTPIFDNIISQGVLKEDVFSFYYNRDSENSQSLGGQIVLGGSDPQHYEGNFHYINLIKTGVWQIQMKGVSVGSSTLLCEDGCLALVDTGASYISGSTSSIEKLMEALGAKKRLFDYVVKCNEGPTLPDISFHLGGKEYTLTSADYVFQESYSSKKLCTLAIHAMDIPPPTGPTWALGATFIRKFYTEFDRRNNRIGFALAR
Protocol: The assay is performed as follows: The test compound (i.e. the inhibitor) is dissolved in dimethylsulfoxide (1 mM stock solution) and diluted with an aqueous buffer solution of 270 mM 2-(N-morpholino)ethanesulfonic acid and 1% human serum albumin (pH 5.85, also containing dimercaprol and 8-hydroxyquinoline sulfate in accordance with the instructions of the RIA kit noted below) to give an assay mixture in which the final dimethylsulfoxide content is 1% (v/v).
A human plasma pool is used as the source of both the substrate (angiotensinogen) and the enzyme (renin). The reaction is initiated by the addition of 50 μL of human plasma pool to 50 μL of various concentrations of inhibitor in the 1% dimethylsulfoxide assay buffer. The plasma renin activity is measured by the amount of angiotensin I generated at pH 6.0 following a 2 h incubation at 37°.
Quantitation of angiotensin I is performed by radioimmunoassay (RIA kit from New England Nuclear-Dupont, Mississauga, ON, Canada). The enzymatic activity of renin is expressed in ng of angiotensin I generated (/mL/2 h). The extent of inhibition of the reaction is determined from the amount of angiotensin I generated in reference to a control prepared without inhibitor. Nonlinear regression analysis is used to calculate the IC50 values, i.e. the molar concentration of the test compound required to cause a 50% inhibition of the enzyme activity.

IC50 [nM]	SMILES
2	COC1(CN(CC(=O)N(C)CCc2ccccn2)C(=O)C[C@@H](Cc2csc(N)n2)C(=O)N[C@@H](CC2CCCCC2)[C@@H](O)[C@@H](O)CC(C)C)CCCCC1 [Compound 62, N^4-[(1-methoxycyclohexyl)methyl]-N^4 -{2-{methyl[2-(2-pyridinyl)ethyl]amino}-2-oxoethyl}-N^1-[1(S)-(cyclohexylmethyl)-2(R),3(S)-dihydroxy-5-methylhexyl]-2(R)-[(2-amino-4-thiazolyl)methyl]butanediamide]
71	CC(C)C[C@H](O)[C@H](O)[C@H](CC1CCCCC1)NC(=O)[C@@H](CC(=O)N(Cc1ccccc1)CC(O)c1ccccc1)CC1CC1 (stereo partly drawn) [Compound 12, N^4-benzyl-N^4-(R,S)-(2-hydroxy-2-phenylethyl)-N^1-[1(S)-(cyclohexylmethyl)-2(R),3(S)-dihydroxy-5-methylhexyl]-2(R)-(cyclopropylmethyl)butanediamide]
7	CC(C)C[C@H](O)[C@H](O)[C@H](CC1CCCCC1)NC(=O)[C@@H](CC(=O)N(CC1CCCC1)CC(C)(C)O)Cc1csc(N)n1 [Compound 47, N^4-(cyclopentylmethyl)-N^4-(2-hydroxy-2-methylpropyl)-N^1-[1(S)-(cyclohexylmethyl)-2(R),3(S)-dihydroxy-5-methylhexyl]-2(R)-[(2-amino-4-thiazolyl)methyl]butanediamide]
95	CC(C)C[C@H](O)[C@H](O)[C@H](CC1CCCCC1)NC(=O)[C@@H](CC(=O)N[C@@H](CO)[C@@H](O)c1ccccc1)CC1CC1 [Compound 18, N^4-[2(S)-hydroxy-1(S)-(hydroxymethyl)-2-phenylethyl]-N^1-[1(S)-(cyclohexylmethyl)-2(R),3(S)-dihydroxy-5-methylhexyl]-2(R)-(cyclopropylmethyl)butanediamide]
5	CC(C)C[C@H](O)[C@H](O)[C@H](CC1CCCCC1)NC(=O)[C@@H](CC(=O)N(CC1CCCCCC1)CC(C)(C)O)Cc1cscn1 [Compound 51, N^4-(cycloheptylmethyl)-N^4-(2-hydroxy-2-methylpropyl)-N^1-[1(S)-(cyclohexylmethyl)-2(R),3(S)-dihydroxy-5-methylhexyl]-2(R)-(4-thiazolylmethyl)butanediamide]
36	CC(C)C[C@H](O)[C@H](O)[C@H](CC1CCCCC1)NC(=O)[C@@H](CC(=O)N(Cc1ccccc1)CC1(O)CCCCC1)CC1CC1 [Compound 1, N^4-benzyl-N^4-[(1-hydroxycyclohexyl)methyl]-N^1-[1(S)-(cyclohexylmethyl)-2(R),3(S)-dihydroxy-5-methylhexyl]-2(R)-(cyclopropylmethyl)butanediamide]
1	CC(C)C[C@H](O)[C@H](O)[C@H](CC1CCCCC1)NC(=O)[C@@H](CC(=O)N(CC(=O)N(C)C)CC1(O)CCCCCCC1)Cc1csc(N)n1 [Compound 56, N^4-[(1-hydroxycyclooctyl)methyl]-N^4-[2-(dimethylamino)-2-oxoethyl]-N^1-[1(S)-(cyclohexylmethyl)-2(R),3(S)-dihydroxy-5-methylhexyl]-2(R)-[(2-amino-4-thiazolyl)methyl]butanediamide]
5	CC(C)C[C@H](O)[C@H](O)[C@H](CC1CCCCC1)NC(=O)[C@@H](CC(=O)N(CC1CCCCCC1)CC(C)(C)O)Cc1csc(N)n1 [Compound 48, N^4-(cycloheptylmethyl)-N^4-(2-hydroxy-2-methylpropyl)-N^1-[1(S)-(cyclohexylmethyl)-2(R),3(S)-dihydroxy-5-methylhexyl]-2(R)-[(2-amino-4-thiazolyl)methyl]butanediamide]
11	CC(C)C[C@H](O)[C@H](O)[C@H](CC1CCCCC1)NC(=O)[C@@H](CC(=O)N(Cc1ccc2c(c1)OCO2)CC1(O)CCCCC1)Cc1cscn1 [Compound 33, N^4-[(1-hydroxycyclohexyl)methyl]-N^4-[(3,4-methylenedioxyphenyl)methyl]-N^1-[1(S)-(cyclohexylmethyl)-2(R),3(S)-dihydroxy-5-methylhexyl]-2(R)-(4-thiazolylmethyl)butanediamide]
21	CC(C)C[C@H](O)[C@H](O)[C@H](CC1CCCCC1)NC(=O)[C@@H](CC(=O)N(Cc1ccco1)CC(C)(C)O)Cc1csc(N)n1 [Compound 55, N^4-(2-furanylmethyl)-N^4-(2-hydroxy-2-methylpropyl)-N^1-[1(S)-(cyclohexylmethyl)-2(R),3(S)-dihydroxy-5-methylhexyl]-2(R)-[(2-amino-4-thiazolyl)methyl]butanediamide]
170	CC(C)C[C@H](O)[C@H](O)[C@H](CC1CCCCC1)NC(=O)[C@@H](CC(=O)NCC(O)c1ccccn1)CC1CC1 (mixture of isomers) [Compound 22, N^4-[2(R,S)-hydroxy-2-(2-pyridinyl)ethyl]-N^1-[1(S)-(cyclohexylmethyl)-2(R),3(S)-dihydroxy-5-methylhexyl]-2(R)-(cyclopropylmethyl)butanediamide]
14	CC(C)C[C@H](O)[C@H](O)[C@H](CC1CCCCC1)NC(=O)[C@@H](CC(=O)N(CC1CCCCC1)CC(C)(C)O)Cc1c[nH]cn1 [Compound 43, N^4-(cyclohexylmethyl)-N^4-(2-hydroxy-2-methylpropyl)-N^1-[1(S)-(cyclohexylmethyl)-2(R),3(S)-dihydroxy-5-methylhexyl]-2(R)-(1H-imidazol-4-ylmethyl)butanediamide]
65	CC(C)C[C@H](O)[C@H](O)[C@H](CC1CCCCC1)NC(=O)[C@@H](CC(=O)N(Cc1ccccn1)CC1(O)CCCCCC1)CC1CC1 [Compound 8, N^4-[(1-hydroxycycloheptyl)methyl]-N^4-(2-pyridinylmethyl)-N^1-[1(S)-(cyclohexylmethyl)-2(R),3(S)-dihydroxy-5-methylhexyl]-2(R)-(cyclopropylmethyl)butanediamide]
37	Cc1ccccc1CN(CC(C)(C)O)C(=O)C[C@@H](Cc1csc(N)n1)C(=O)N[C@@H](CC1CCCCC1)[C@@H](O)[C@@H](O)CC(C)C [Compound 57, N^4-[(2-methylphenyl)methyl]-N^4-(2-hydroxy-2-methylpropyl)-N^1-[1(S)-(cyclohexylmethyl)-2(R),3(S)-dihydroxy-5-methylhexyl]-2(R)-[(2-amino-4-thiazolyl)methyl]butanediamide]
67	CC(C)C[C@H](O)[C@H](O)[C@H](CC1CCCCC1)NC(=O)[C@@H](CC(=O)N(C)CC1(O)CCCCC1)Cc1c[nH]cn1 [Compound 35, N^4-[(1-hydroxycyclohexyl)methyl]-N^4-methyl-N^1-[1(S)-(cyclohexylmethyl)-2(R),3(S)-dihydroxy-5-methylhexyl]-2(R)-(1H-imidazol-4-ylmethyl)-butanediamide]
16	CC(C)C[C@H](O)[C@H](O)[C@H](CC1CCCCC1)NC(=O)[C@@H](CC(=O)N(CC(=O)N(C)C)CC(O)C1CCCCC1)Cc1cscn1 (mixture of isomers) [Compound 42, N^4-[2-cyclohexyl-2(R,S)-hydroxyethyl]-N^4-[2-(dimethylamino)-2-oxoethyl]-N^1-[1(S)-(cyclohexylmethyl)-2(R),3(S)-dihydroxy-5-methylhexyl]-2(R)-(4-thiazolylmethyl)butanediamide]
16	CC(C)C[C@H](O)[C@H](O)[C@H](CC1CCCCC1)NC(=O)[C@@H](CC(=O)N(CCO)CC1(O)CCCCC1)Cc1cscn1 [Compound 37, N^4-[(1-hydroxycyclohexyl)methyl]-N^4-(2-hydroxyethyl)-N^1-[1(S)-(cyclohexylmethyl)-2(R),3(S)-dihydroxy-5-methylhexyl]-2(R)-(4-thiazolylmethyl)butanediamide]
